In data set [1] the target is Isocitrate dehydrogenase [NADP], mitochondrial (Homo sapiens, UniProt P48735, R172K). Put plainly: Inhibition of IDH2 R172K mutant (unknown origin) assessed as reduction in NADPH consumption using alpha-ketoglutarate and NADPH as substrate preincubated with enzyme for 15 mins followed by substrate addition by fluorescence based assay.
For data set [2], the target named is T1, Isocitrate dehydrogenase [NADP], mitochondrial (Homo sapiens, UniProt P48735).
T1 sequence (P48735 whole entry): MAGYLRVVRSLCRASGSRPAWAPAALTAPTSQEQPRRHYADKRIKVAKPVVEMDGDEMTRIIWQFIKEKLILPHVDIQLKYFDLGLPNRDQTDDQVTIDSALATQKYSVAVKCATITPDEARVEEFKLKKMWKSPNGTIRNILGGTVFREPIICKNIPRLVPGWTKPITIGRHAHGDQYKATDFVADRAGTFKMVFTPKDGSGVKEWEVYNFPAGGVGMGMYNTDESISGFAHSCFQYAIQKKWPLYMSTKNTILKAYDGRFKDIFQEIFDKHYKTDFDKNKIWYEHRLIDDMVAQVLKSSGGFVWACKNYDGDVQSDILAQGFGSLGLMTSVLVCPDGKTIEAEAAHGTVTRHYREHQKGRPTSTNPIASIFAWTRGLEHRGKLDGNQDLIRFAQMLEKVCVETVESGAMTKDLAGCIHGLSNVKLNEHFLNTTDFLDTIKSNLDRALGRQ
Put plainly: Inhibition of wild type IDH2 (unknown origin) assessed as reduction in NADPH production using sodium(D)-isocitrate and NADP as substrate preincubated with enzyme for 15 mins followed by substrate addition by fluorescence based assay.

Data set [3] has as its target Isocitrate dehydrogenase [NADP], mitochondrial (Homo sapiens, UniProt P48735, R140Q). Put plainly: Inhibition of IDH2 R140Q mutant (unknown origin) assessed as reduction in NADPH consumption using alpha-ketoglutarate and NADPH as substrate preincubated with enzyme for 15 mins followed by substrate addition by fluorescence based assay.
A short description of data set [4]: Cytotoxicity aganist human PBMC cells. The format is cell-based.
The next data set has as its system WI-38. Put plainly: Cytotoxicity aganist human WI-38 cells. The format is cell-based.
Data set [5] in a line: Metabolic stability in human liver microsomes assessed as parent compound remaining at 100 ug/ml measured after 15 mins in presence of NADPH by LC-MS analysis. The format is ADME, Microsome. The note with it: at 100 µg/mL, read-out: Stabilty. (Microsomes from liver hold many membrane-bound enzymes, among them those of drug oxidation.)
The subject of the next data set is TF-1. Put plainly: Cytotoxicity aganist human TF-1 cells harboring IDH2 mutant. Format: functional, cell-based.
A short description of data set [6]: Metabolic stability in human liver microsomes assessed as parent compound remaining at 100 ug/ml measured after 90 mins in presence of NADPH by LC-MS analysis. Format: ADME, Microsome. The note with it: at 100 µg/mL, read-out: Stabilty.
The nature of data set [7]: Metabolic stability in human liver microsomes assessed as parent compound remaining at 100 ug/ml measured after 45 mins in presence of NADPH by LC-MS analysis. The note with it: at 100 µg/mL, read-out: Stabilty. The format is ADME, Microsome.

Counter-ions that a name gives are not always drawn.

The term IC50 denotes the point on the concentration scale where inhibition reaches its midpoint.

Chain of Isocitrate dehydrogenase [NADP], mitochondrial (Homo sapiens, UniProt P48735, R140Q) (P48735 40-452 R140Q limits assumed): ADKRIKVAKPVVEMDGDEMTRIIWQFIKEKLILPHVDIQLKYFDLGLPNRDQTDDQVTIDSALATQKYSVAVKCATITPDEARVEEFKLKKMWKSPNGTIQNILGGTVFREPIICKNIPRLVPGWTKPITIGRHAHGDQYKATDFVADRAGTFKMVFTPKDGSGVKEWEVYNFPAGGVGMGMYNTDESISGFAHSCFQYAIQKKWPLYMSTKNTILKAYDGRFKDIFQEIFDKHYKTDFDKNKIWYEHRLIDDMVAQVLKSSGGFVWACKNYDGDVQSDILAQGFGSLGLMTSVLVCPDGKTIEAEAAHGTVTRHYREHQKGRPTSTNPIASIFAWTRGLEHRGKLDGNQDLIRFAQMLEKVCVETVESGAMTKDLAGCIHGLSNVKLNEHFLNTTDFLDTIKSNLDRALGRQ
Chain of Isocitrate dehydrogenase [NADP], mitochondrial (Homo sapiens, UniProt P48735, R172K) (P48735 40-452 R172K limits assumed): as the sequence (P48735 40-452 R140Q limits assumed) above, with Q101R, R133K counted along it

As to `FC(F)(F)c1cccc(-c2nc3nc(n2)Nc2cc(Cl)cc(c2)C/C=C\COCCN3)n1`, the results for the IC50 in [1], in [2] and in data set [3] were 417 nM, more than 20000 nM and 36 nM, respectively.

For `FC(F)(F)c1cc2cc(c1)Nc1nc(nc(-c3cccc(C(F)(F)F)n3)n1)NCCOCCCC2`, the 50% inhibitory concentration (IC50) in data set [4] was 10000 nM; in data set [1], 517 nM; in data set [2], more than 20000 nM; in [3], 64.4 nM; in the data set on WI-38 it was 10000 nM.

For `FC(F)(F)c1cc2cc(c1)Nc1nc(nc(-c3cccc(C(F)(F)F)n3)n1)NCCCCC/C=C/C2`, the values for the IC50 in [1], in data set [2] and in data set [3] were 92.7 nM, more than 20000 nM and 37.6 nM, respectively.

In the case of `CC1(C)CNc2nc(nc(-c3cccc(C(F)(F)F)n3)n2)Nc2cc(cc(C(F)(F)F)c2)C/C=C\CO1`, the IC50 in [2] is more than 20000 nM; in [3], 396 nM.

Consider `C=CCOC(C)(C)CNc1nc(Nc2cccc(C(F)(F)F)c2)nc(-c2cccc(C(F)(F)F)n2)n1`, for which the 50% inhibitory concentration (IC50) in data set [1] was 15.5 nM; in data set [2], more than 20000 nM; in data set [3] it was 32.8 nM.

On to `FC(F)(F)c1cc2cc(c1)Nc1nc(nc(-c3cccc(C(F)(F)F)n3)n1)NCCCCCCCC2`, for which the remaining at 0.25 h, 100 ug/ml in data set [5] was more than 99%. Further, the IC50 is more than 10000 nM in the data set with TF-1, 131 nM in data set [1], more than 20000 nM in data set [2] and 37.2 nM in data set [3]. Further, in data set [6], the remaining at 1.5 h, 100 ug/ml amounted to 72%. Besides, the remaining at 0.75 h, 100 ug/ml in [7] came out at 75%.

In the case of `CC1(C)CNc2nc(nc(-c3cccc(C(F)(F)F)n3)n2)Nc2cc(cc(C(F)(F)F)c2)OCCCO1`, the IC50 was 27.4 nM in [1], more than 20000 nM in [2] and 79.3 nM in [3].

In the case of `CC(C)(O)CNc1nc(Nc2ccncc2)nc(-c2cccc(C(F)(F)F)n2)n1`, the IC50 with TF-1 was more than 10000 nM; in data set [1], more than 10000 nM; in data set [2] it was more than 20000 nM; in [3], 663 nM.

On to `FC(F)(F)c1cc2cc(c1)OC/C=C\CCCNc1nc(nc(-c3cccc(C(F)(F)F)n3)n1)N2`, for which the IC50 in data set [1] was 50.3 nM; in data set [2], more than 20000 nM; in [3], 17.4 nM.

On to `CC(C)(O)CNc1nc(Nc2ccnc(C(F)(F)F)c2)nc(-c2cccc(C(F)(F)F)n2)n1` [ENASIDENIB MESYLATE], for which the IC50 was 319 nM in data set [1] and 124 nM in [3].

Take `O=C1NCCCCNc2nc(nc(-c3cccc(C(F)(F)F)n3)n2)Nc2cc1cc(C(F)(F)F)c2`: the IC50 in [1] was more than 10000 nM; in [2], more than 20000 nM; in data set [3], 699 nM.

Take `Cc1cc2cc(c1)Nc1nc(nc(-c3cccc(C(F)(F)F)n3)n1)NCCOCCCC2`: the IC50 was 1320 nM in [1], more than 20000 nM in data set [2] and 22.2 nM in data set [3].

`CC1CNc2nc(nc(-c3cccc(C(F)(F)F)n3)n2)Nc2cc(cc(C(F)(F)F)c2)C/C=C\CO1` (configuration not stated): the concentration for half-maximal inhibition (IC50) in [2] was more than 20000 nM; in data set [3] it was 267 nM.

With `FC(F)(F)c1cc2cc(c1)Nc1nc(nc(-c3cccc(C(F)(F)F)n3)n1)NCC/C=C/C2`, the half-inhibitory concentration (IC50) is more than 10000 nM in the data set on TF-1, more than 10000 nM in data set [1], more than 20000 nM in [2] and 683 nM in data set [3].

For the compound `FC(F)(F)c1cc2cc(c1)Nc1nc(nc(-c3cccc(C(F)(F)F)n3)n1)NCCCCC2`, the IC50 was more than 10000 nM in the data set with TF-1, more than 10000 nM in data set [1], more than 20000 nM in [2] and 1240 nM in data set [3].

`CC(C)(O)CNc1nc(Nc2cccc(C(F)(F)F)c2)nc(-c2cccc(C(F)(F)F)n2)n1`: the remaining at 0.25 h, 100 ug/ml in data set [5] was determined as 86%. Besides, the half-inhibitory concentration (IC50) in the data set with TF-1 is more than 10000 nM; in data set [1], 119 nM; in data set [2] it was more than 20000 nM; in [3], 26 nM. In [6], the remaining at 1.5 h, 100 ug/ml is 81%. Moreover, the remaining at 0.75 h, 100 ug/ml in data set [7] was determined as 81%.

On to `CC1(C)CCNc2nc(nc(-c3cccc(C(F)(F)F)n3)n2)Nc2cc(cc(C(F)(F)F)c2)CCCCO1`, for which the 50% inhibitory concentration (IC50) in [1] is 455 nM; in data set [2] it was more than 20000 nM; in [3] it was 182 nM.

For `O=C1OCCCCCNc2nc(nc(-c3cccc(C(F)(F)F)n3)n2)Nc2cc1cc(C(F)(F)F)c2`, the IC50 is 314 nM in [1], more than 20000 nM in data set [2] and 105 nM in data set [3].

For `FC(F)(F)c1cc2cc(c1)OCCCCCNc1nc(nc(-c3cccc(C(F)(F)F)n3)n1)N2`, the IC50 was 116 nM in data set [1], more than 20000 nM in [2] and 51 nM in data set [3].

For `FC(F)(F)c1cc2cc(c1)Nc1nc(nc(-c3cccc(C(F)(F)F)n3)n1)NCCCC/C=C/C2`, the results for the IC50 in data set [1], in data set [2] and in [3] were 46.9 nM, more than 20000 nM and 37.6 nM, respectively.

`Fc1cc2cc(c1)Nc1nc(nc(-c3cccc(C(F)(F)F)n3)n1)NCCOC/C=C\C2`: the figures for the 50% inhibitory concentration (IC50) in data set [1], in [2] and in data set [3] were 688 nM, more than 20000 nM and 29.5 nM, respectively.

As for `CC(C)(O)CNc1nc(Nc2ccccc2)nc(-c2cccc(C(F)(F)F)n2)n1`, the figures for the IC50 in data set [1], in [2] and in [3] were 1430 nM, more than 20000 nM and 98.2 nM, respectively.

With `FC(F)(F)c1cc2cc(c1)Nc1nc(nc(-c3cccc(C(F)(F)F)n3)n1)NCCOC/C=C\C2`, the IC50 in data set [4] was 10000 nM; in data set [1], 210 nM; in [2], more than 20000 nM; in [3] it was 39.9 nM; in the data set with WI-38 it was 10000 nM.

In the case of `Fc1cc2cc(c1)Nc1nc(nc(-c3cccc(C(F)(F)F)n3)n1)NCCOCCCC2`, the concentration for half-maximal inhibition (IC50) in data set [1] was 881 nM; in data set [2] it was more than 20000 nM; in data set [3] it was 18.6 nM.

With `C=CCOC(C)(C)CNc1nc(Nc2ccccc2)nc(-c2cccc(C(F)(F)F)n2)n1`, the concentration for half-maximal inhibition (IC50) with TF-1 is more than 10000 nM; in data set [1], 167 nM; in data set [2], more than 20000 nM; in data set [3] it was 46 nM.

For `CC1CNc2nc(nc(-c3cccc(C(F)(F)F)n3)n2)Nc2cc(cc(C(F)(F)F)c2)CCCCO1` (configuration not stated), the figures for the IC50 in [1], in [2] and in [3] were 17.7 nM, more than 20000 nM and 45.6 nM, respectively.

For `FC(F)(F)c1cccc(-c2nc3nc(n2)Nc2cc(Cl)cc(c2)CCCCOCCN3)n1`, the figures for the IC50 in [1], in data set [2] and in data set [3] were 443 nM, more than 20000 nM and 12.2 nM, respectively.

On to `CC(C)(O)CNc1nc(Nc2ccnc(C(F)(F)F)c2)nc(-c2cccc(C(F)(F)F)n2)n1` [ENASIDENIB], for which the results for the IC50 in data set [1], in data set [2] and in [3] were 269 nM, more than 20000 nM and 35.9 nM, respectively.

For `FC(F)(F)c1cc2cc(c1)OC/C=C\CCNc1nc(nc(-c3cccc(C(F)(F)F)n3)n1)N2`, the remaining at 0.25 h, 100 ug/ml in data set [5] is 89%. Moreover, the IC50 in data set [1] was 1570 nM; in data set [2], more than 20000 nM; in data set [3] it was 18.4 nM. Further, the remaining at 1.5 h, 100 ug/ml in data set [6] was 64%. In addition, the remaining at 0.75 h, 100 ug/ml in data set [7] was found to be 66%.

Regarding `CC1(C)CNc2nc(nc(-c3cccc(C(F)(F)F)n3)n2)Nc2cc(cc(C(F)(F)F)c2)CCCCO1`, the half-maximal inhibitory concentration (IC50) in [4] was 10000 nM; in data set [1], 9.6 nM; in data set [2], more than 20000 nM; in [3] it was 38.5 nM; with WI-38 it was 10000 nM.

With `Cc1cc2cc(c1)Nc1nc(nc(-c3cccc(C(F)(F)F)n3)n1)NCCOC/C=C\C2`, the IC50 was 830 nM in data set [1], more than 20000 nM in [2] and 37.9 nM in [3].

For `FC(F)(F)c1cc2cc(c1)Nc1nc(nc(-c3cccc(C(F)(F)F)n3)n1)NCCCCCCC2`, the IC50 is 30.1 nM in data set [1], more than 20000 nM in [2] and 19.9 nM in data set [3].

Turning to `FC(F)(F)c1cc2cc(c1)OCCCCCCNc1nc(nc(-c3cccc(C(F)(F)F)n3)n1)N2`, the remaining at 0.25 h, 100 ug/ml in [5] is 93%. For the same compound, the 50% inhibitory concentration (IC50) was 45.5 nM in data set [1], more than 20000 nM in data set [2] and 133 nM in data set [3]. In addition, the remaining at 1.5 h, 100 ug/ml in data set [6] is 85%. Also, in data set [7], the remaining at 0.75 h, 100 ug/ml came out at 97%.

Turning to `FC(F)(F)c1cc2cc(c1)Nc1nc(nc(-c3cccc(C(F)(F)F)n3)n1)NCCCCCC2`, the remaining at 0.25 h, 100 ug/ml in data set [5] stood at 95%. The concentration for half-maximal inhibition (IC50) with TF-1 was more than 10000 nM; in data set [1] it was 219 nM; in data set [2], more than 20000 nM; in data set [3] it was 6.1 nM. The remaining at 1.5 h, 100 ug/ml in [6] was determined as 85%. Besides, the remaining at 0.75 h, 100 ug/ml in data set [7] was 94%.
